# Laboratory results: US8188064B2, “Vitamin D analogs for obesity prevention and treatment” (Wisconsin Alumni Research Foundation, priority 2003, dated 2012)
# “Also recorded” adds a separate entry of the source. Like-named read-outs stand apart in the source and are kept apart here.
# What was measured:
# C/EBPα mRNA = C/EBPα mRNA induction by MDI in 3T3-L1 cells (RT-PCR); type: cell-based, murine; settings: compound present at 1×10^−8 M
# Description: Analysis of C/EBPα was determined by PCR using murine primers (upstream=CGA GTA GGG GGA GCA AAA A (SEQ ID NO: 7); downstream=GCA AAA AGC MG GGA TTA GGA G (SEQ ID NO: 8)). RT-PCR was carried out as described above with 0.5 μM each primer, 2 mM MgCl2, and 1×SYBR Green master mix. The murine C/EBPα primers have a 60° C. annealing temperature and a 12 second extension time.
# SCD-1 mRNA = experiment: Inhibition of SCD-1 mRNA induction in 3T3-L1 cells (RT-PCR); type: cell-based, murine; settings: for EC50: Mus musculus, 3T3-L1, 96 h, read-out: EC50 for inhibition of murine 3T3-L1 expression of SCD-1 mRNA; for inhibition of SCD-1 mRNA induction: result in words, MDI-treated 3T3-L1 cells
# Description: Chomczynski, P. et al., Anal. […] NO: 4)).
# [1] = Hypercalcemia / serum calcium analysis; type: in vivo, rat; settings: normal vitamin D sufficient rats, very high oral doses
# PPARγ2 mRNA = PPARγ2 mRNA induction by MDI in 3T3-L1 cells (RT-PCR); type: cell-based, murine; settings: compound present at 1×10^−8 M
# Description: RT-PCR was carried out as described above with 0.5 μM each primer, 2 mM MgCl2, and 1×SYBR Green master mix.
# [2] = Bone calcium mobilization (serum calcium on low calcium diet); type: in vivo, rat; settings: result in words, vitamin D deficient rat model, compared to 1α,25(OH)2D3
# Summary of the method: (§1)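 Male weanling Sprague-Dawley rats, vitamin D-deficient, cycled through 0.47% and 0.02% Ca diets, dosed during the last 0.02% Ca week. Four ip doses ~24 h apart; serum calcium measured 24 h after last dose. First 10 cm of intestine taken for everted gut sac calcium transport.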
# [3] = test system: Human promyelocytic leukemia (HL60) cells; experiment: HL-60 differentiation (nitro blue tetrazolium reduction); type: cell-based; settings: concentration 1×10^−7 M
# Summary of the method: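 Four-day drug treatment of cells grown in RPMI-1640/10% FBS at 37 °C, 5% CO2, ethanol ≦0.2%; then NBT reduction, percent of 200 cells with black-blue formazan.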
# [4] = Intestinal calcium transport (everted gut sac); type: in vivo; settings: result in words, vitamin D deficient rat model, compared to 1α,25(OH)2D3
# Summary of the method: as §1
# 3T3-L1 cells = experiment: Inhibition of 3T3-L1 differentiation into mature adipocytes (Oil-Red-O staining); type: cell-based, murine; settings: for inhibition of differentiation of 3T3-L1 cells into mature adipocytes (Oil-Red-O staining): result in words, MDI-treated cells, staining at day 10
# [5] = target: T1, full-length recombinant rat vitamin D receptor (Rattus norvegicus, UniProt P13053); experiment: Vitamin D receptor binding (competition with 3H-1,25(OH)2D3); settings: result in words, competition for tritiated hormone binding
# T1 construct: Full-length recombinant rat receptor was expressed in E. coli; histidine tag (C); made in house; host or cells: E. coli BL21(DE3) Codon Plus RIL
# T1 sequence (P13053 1-423): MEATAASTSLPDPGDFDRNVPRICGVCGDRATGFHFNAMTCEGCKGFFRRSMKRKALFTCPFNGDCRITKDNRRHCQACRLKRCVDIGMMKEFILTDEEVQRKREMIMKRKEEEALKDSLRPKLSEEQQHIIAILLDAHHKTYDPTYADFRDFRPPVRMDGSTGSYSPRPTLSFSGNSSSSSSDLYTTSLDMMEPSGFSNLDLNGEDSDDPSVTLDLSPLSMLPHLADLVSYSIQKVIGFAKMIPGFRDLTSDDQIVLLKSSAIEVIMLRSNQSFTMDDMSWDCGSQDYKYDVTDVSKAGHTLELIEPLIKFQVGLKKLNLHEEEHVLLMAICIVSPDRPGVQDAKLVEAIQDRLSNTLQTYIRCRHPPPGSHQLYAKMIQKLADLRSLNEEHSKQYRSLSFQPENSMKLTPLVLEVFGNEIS
# Summary of the method: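 Purified His-tagged receptor from E. coli, diluted in TEDK50 (pH 7.4, 5 mM DTT, 150 mM KCl) with 0.1% Chaps, set so ≤20% of radioligand bound. Competition against 1 nM final 3H-1,25(OH)2D3, ethanol ≤10%, overnight on ice; bound ligand collected on hydroxylapatite, washed, counted by scintillation.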
smiles,measurement,setting,value
"C=C1/C(=C\C=C2/CCC[C@]3(C)[C@@H]([C@H](C)CCCC(C)(C)O)CC[C@@H]23)C[C@@H](O)C[C@@H]1O [1α,25(OH)2D3, 1α,25-dihydroxyvitamin D3, reference compound]",C/EBPα mRNA induction by MDI,C/EBPα mRNA,not induced
same,EC50,SCD-1 mRNA,0.2 nM
same,inhibition of SCD-1 mRNA induction,SCD-1 mRNA,inhibition
same,increase in serum calcium,[1],frank hypercalcemia and even death
same,PPARγ mRNA induction by MDI,PPARγ2 mRNA,not induced
same,bone calcium mobilization activity,[2]; listed as calcitriol,quite potent; also recorded: active
same,cells induced to differentiate in the NBT assay,[3],~90%
same,intestinal calcium transport activity,[4]; listed as calcitriol,quite potent; also recorded: active
same,inhibition of differentiation of 3T3-L1 cells into mature adipocytes (Oil-Red-O staining),3T3-L1 cells,inhibit; also recorded: inhibition
C=C1[C@H](O)CC(=C/C=C2\CCC[C@]3(C)[C@@H]([C@@H](C)CC)CC[C@@H]23)C[C@H]1O [2-MbisP],C/EBPα mRNA induction by MDI,C/EBPα mRNA,not induced
same,EC50,SCD-1 mRNA; SCD-1 mRNA at 4 days,~0.54 nM
same,"times less potent than the native hormone 1,25-(OH)2D3",SCD-1 mRNA; inhibition of SCD-1 mRNA induction,2 to 3 times
same,inhibition of SCD-1 mRNA induction,"SCD-1 mRNA; listed as (1α,20S)2MbisP",inhibition
same,inhibition of SCD-1 mRNA induction,SCD-1 mRNA; listed as (20S)2-MbisP,nearly as potent as the native hormone
same,inhibition of SCD1 mRNA induction,SCD-1 mRNA; tested at 1×10^−8.5 M,active
same,increase in serum calcium,[1],without producing an increase in serum calcium
same,PPARγ mRNA induction by MDI,PPARγ2 mRNA,not induced
same,bone calcium mobilization activity,[2],"little, if any, activity"
same,"binding to the vitamin D receptor, compared to 1α,25(OH)2D3",[5]; listed as 1α-(20S)2-MbisP,nearly the same affinity
same,"binding to the vitamin D receptor, compared to 1α,25(OH)2D3",[5]; listed as (20S)2-MbisP,as or nearly effective as calcitriol
same,intestinal calcium transport activity,[4],"little, if any, activity"
same,difference in potency from the native hormone in inhibiting differentiation,3T3-L1 cells; MDI-induced 3T3-L1 cells,< 0.5 log unit
same,inhibition of differentiation of 3T3-L1 cells into mature adipocytes (Oil-Red-O staining),3T3-L1 cells,inhibit; also recorded: effective
same,inhibition of differentiation of 3T3-L1 cells into mature adipocytes (Oil-Red-O staining),3T3-L1 cells; listed as 1α-(20S)2-MbisP,nearly equipotent
same,inhibition of differentiation of 3T3-L1 cells into mature adipocytes (Oil-Red-O staining),"3T3-L1 cells; listed as (1α,20S)2MbisP",inhibition
same,inhibition of differentiation of 3T3-L1 cells into mature adipocytes (Oil-Red-O staining),3T3-L1 cells; listed as (20S)2-MbisP,nearly as potent as the native hormone
same,inhibition of differentiation of 3T3-L1 cells into mature adipocytes (Oil-Red-O staining),3T3-L1 cells; listed as (20S)2M-bisP,inhibition
same,inhibition of differentiation of 3T3-L1 cells into mature adipocytes (Oil-Red-O staining),3T3-L1 cells; listed as (20S)2MbisP,inhibition
same,inhibition of differentiation of MDI-treated 3T3-L1 cells (oil-red-O staining),3T3-L1 cells; tested at 1×10^−8.5 M,active
